# pIC50, pKd: −log10 of the molar value. Like-named read-outs stand apart in the source and are kept apart here.
# Tests used:
# [1] = target: T1, AKT1 PH-domain (Homo sapiens, UniProt P31749); assay: SPR binding assay (Biacore T100), AKT1 PH-domain
# T1 construct: The PH-domain His-fusion proteins (CNK1 and AKT1) were expressed and immobilized on a NTA chip; made in house
# Method: (§1) All interaction analyses were done with a Biacore T100 Control Software v3.2, and BIAevaluation v4.1 analysis software (Biacore). The PH-domain His-fusion proteins (CNK1 and AKT1) were expressed and immobilized on a NTA chip to a level of 10,000 response units or less. Small molecule analytes at concentrations ranging from 50 μM to 0.010 μM were injected at a high flow rate (30 μL/min) DMSO concentrations in all samples and running buffer were 1-5% (v/v).
# A commercially available docking package, GOLD (GOLD [3.2], CCDC: Cambridge, UK, 2007) was used to evaluate the docking of compounds 1-7 into the binding pocket, see e.g. Table 5. Other docking was performed using modeling algorithms with state-of-the-art commercial drug discovery software (Schrodinger suite). GLIDE was chosen as the docking algorithm used to select and optimize compounds, providing a GlideScore as a rough estimate of binding affinity that was used to rank and select the best compounds. Additionally, ligand-based approaches provided an alternative to structure based drug discovery. Ligand-based virtual screening methodologies can take into account shape and electrostatics (like ROCS) and the pharmacophoric features (acceptor, donor, hydrophobic, aromatic, etc.) of its functional groups. Inositol tetraphosphate (IP4) binding to the PH-domain of CNKSR1 provided a good starting point for shape screening. Both structure-based and ligand-based approaches were used to find novel compounds (Table 7) and to refine and improve lead compounds (Tables 8, and 9). SPR interaction analyses for Compounds 1 through 7 were performed with a Biacore 2000, using Biacore2000 Control Software v3.2 and BIAevaluation v4.1 analysis software (Biacore) as described in Mol Cancer Ther 7:2621 (2008). SPR interaction analyses of all other compounds was undertaken using a Biacore T100 with Control and Evaluation software kit.
# [2] = target: T2, CNK1 PH-domain (CNKSR1) (Homo sapiens, UniProt Q969H4); assay: SPR binding assay (Biacore T100), CNK1 PH-domain
# T2 construct: The PH-domain His-fusion proteins (CNK1 and AKT1) were expressed and immobilized on a NTA chip; made in house
# T2 sequence (Q969H4 403-502 limits assumed): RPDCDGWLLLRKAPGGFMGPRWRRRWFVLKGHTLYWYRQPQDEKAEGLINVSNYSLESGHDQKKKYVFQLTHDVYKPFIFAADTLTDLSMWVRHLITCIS
# Method: as §1
# Other docking was performed using modeling algorithms with state-of-the-art commercial drug discovery software (Schrodinger suite). […] Additionally, ligand-based approaches provided an alternative to structure based drug discovery. Ligand-based virtual screening methodologies can take into account shape and electrostatics (like ROCS) and the pharmacophoric features (acceptor, donor, hydrophobic, aromatic, etc.) of its functional groups. […] SPR interaction analyses of all other compounds was undertaken using a Biacore T100 with Control and Evaluation software kit.
# [3] = system: A549 (KRAS mutant cell line); assay: Proliferation Assay A549; format: cell-based; conditions: Homo sapiens, N = 2 experiments
# Method: (§2) The isogenic KRAS lines harboring G12D, G12C, and G12V were obtained from Horizon Discovery labs on a one year lease. These cells were cultured in McCoys media with 10% FBS to 80% confluency. Cells were then released from flasks via trypsinization and plated into 96-well plates at an initial density range of 2000 cells per well. Cells were allowed 24 hours to attach, and then the agents were added to the culture media at a range of concentrations from 0-100 μM. Cells were incubated for 72 hours with the drugs, and then viability was assessed using an MTS viability assay. Cells were exposed to MTS reagent (Promega) dissolved in PBS (Hyclone) at a concentration of 200 μL reagent/mL media for 2 hours. Absorbance was then read at 490 nm, and viability was expressed as a percentage normalized between the negative control (no cells plated) and the condition of cells with no drug added (100% viability) normalized as the upper limit of viability.
# (§3) Our panel of 30 cell lines and an extensive characterization were obtained from Dr. John Minna (UTSW). All cell lines were cultured in RPMI 1640 with 10% FBS. Cells were treated with concentrations of agents at concentrations 0.01 to 50 μM and evaluated as described above. IC50's were determined using Excelfit.
# [4] = system: H1373 (KRAS mutant cell line); assay: Proliferation Assay H1373; format: cell-based; conditions: Homo sapiens, NCI-H1373, N = 2 experiments
# Method: as §2, §3
# [5] = system: H226 (KRAS wildtype cell line); assay: Proliferation Assay H226; format: cell-based; conditions: Homo sapiens, NCI-H226, n = 1
# Method: as §2, §3
# [6] = system: H1975 (KRAS wildtype cell line); assay: Proliferation Assay H1975; format: cell-based; conditions: Homo sapiens, NCI-H1975, n = 1
# Method: as §2, §3
# T1 sequence (P31749 5-108 limits assumed): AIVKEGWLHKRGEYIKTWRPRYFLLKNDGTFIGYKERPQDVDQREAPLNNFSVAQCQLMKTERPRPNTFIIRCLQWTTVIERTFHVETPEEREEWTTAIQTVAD
SMILES,"AKT KD ([1]; Table 7, curated diversity set)","pKd ([2]; Table 6, read-out: CNKS KD)",pIC50 [3],pIC50 [4],pIC50 [5],Surface Plasmon Resonance CNKSR1 binding (RU max) ([2]; date 12 09 13),Surface Plasmon Resonance CNKSR1 stability (RU max post-injection) ([2]; date 12 09 13),pIC50 [6],AKT KD ([1]; Table 8),"pKd ([2]; Table 8, read-out: CNK KD)",Surface Plasmon Resonance CNKSR1 binding (RU max) ([2]; date 11 26 13),Surface Plasmon Resonance CNKSR1 stability (RU max post-injection) ([2]; date 11 26 13)
COc1ccc(OC)c(-c2cc(C(=O)O)c3nc(C)[nH]c3n2)c1 [Compound 34],Bound,,,,,,,,,,,
Cc1c(Cl)ccc2c(C(=O)O)cc(-c3cccnc3)nc12 [Compound 64],Bound,,,,,,,,,,,
Nc1cccc(-c2cc(C(=O)O)c3cc(Cl)ccc3n2)c1 [Compound 66],Bound,,,,,,,,,,,
O=C(O)CCc1ccc(-c2ccc(Br)cc2)n1CCC(=O)O [Compound 67],Bound,,,,,,,,,,,
Cc1ccc(-c2csc(Cn3nc(CC4CN=CCO4)c4ccccc4c3=O)n2)cc1 (stereo not shown) [Compound 80],,< 4.00,,,,,,,,,,
Cc1ccc(-c2csc(Cn3nc(CC(=O)NCCC(N)=O)c4ccccc4c3=O)n2)cc1 [Compound 81],,3.96,4.00,4.02,< 4.00,0.316 RU * 100/Da,0.154 RU * 100/Da,4.10,,,,
Cc1ccc(-c2csc(Cn3nc(CC(=O)NCC(N)=O)c4ccccc4c3=O)n2)cc1 [Compound 82],,,4.29,4.19,< 4.00,1.304 RU * 100/Da,0.544 RU * 100/Da,4.15,,,,
"COc1c(/C=C/C(=O)O)cc(NS(=O)(=O)c2cccs2)c2c1OCO2 [Compound 84, (E)-3-(4-methoxy-7-(thiophene-2-sulfonamido)benzo[d][1,3]dioxol-5-yl)acrylic acid]",,,< 4.00,< 4.00,< 4.00,,,< 4.00,No binding,,,
"O=C(O)/C=C/c1cc(NS(=O)(=O)c2cccs2)c2c(c1O)OCO2 [Compound 89, (E)-3-(4-hydroxy-7-(thiophene-2-sulfonamido)benzo[d][1,3]dioxol-5-yl)acrylic acid]",,,< 4.00,< 4.00,< 4.00,1.350 RU * 100/Da,1.401 RU * 100/Da,< 4.00,,5.47,,
"O=C(O)CCc1cc(NS(=O)(=O)c2cccs2)c2c(c1O)OCO2 [Compound 90, 3-(4-hydroxy-7-(thiophene-2-sulfonamido)benzo[d][1,3]dioxol-5-yl)propanoic acid]",,,< 4.00,< 4.00,< 4.00,−7.809 RU * 100/Da,−3.766 RU * 100/Da,< 4.00,,,,
CN1CC(=O)N(/C=C/c2cc(NS(=O)(=O)c3cccs3)c3c(c2O)OCO3)C1=O [Compound 91],,,< 4.00,< 4.00,< 4.00,,,< 4.00,,,−1.867 RU * 100/Da,0.288 RU * 100/Da
O=C1COC(=O)N1/C=C/c1cc(NS(=O)(=O)c2cccs2)c2c(c1O)OCO2 [Compound 100],,,< 4.00,< 4.00,< 4.00,,,< 4.00,,,−1.240 RU * 100/Da,−0.026 RU * 100/Da
Cc1ccc(-c2csc(Cn3nc(C4OC5CCOC54)c4ccccc4c3=O)n2)cc1 (stereo not shown) [Compound 124],,,4.30,4.30,4.02,−0.369 RU * 100/Da,−0.053 RU * 100/Da,< 4.00,,,,
Cc1ccc(-c2csc(Cn3nc(CC(O)C[N+](=O)[O-])c4ccccc4c3=O)n2)cc1 (stereo not shown) [Compound 125],,,4.42,4.22,4.19,−0.380 RU * 100/Da,−0.127 RU * 100/Da,4.40,,,,
Cc1ccc(-c2csc(Cn3nc(CC(O)CN)c4ccccc4c3=O)n2)cc1 (stereo not shown) [Compound 126],,,4.57,4.80,4.72,−0.166 RU * 100/Da,−0.031 RU * 100/Da,4.57,,,,
Cc1ccc(-c2csc(Cn3nc(CC(=O)NS(C)(=O)=O)c4ccccc4c3=O)n2)cc1 [Compound 127],,,< 4.00,< 4.00,< 4.00,3.050 RU * 100/Da,2.868 RU * 100/Da,< 4.00,,,,
CN1CC(=O)N(/C=C/c2cc(N(S(=O)(=O)c3cccs3)S(=O)(=O)c3cccs3)c3c(c2O)OCO3)C1=O [Compound 128],,,< 4.00,< 4.00,< 4.00,−0.541 RU * 100/Da,−0.304 RU * 100/Da,< 4.00,,,1.409 RU * 100/Da,0.456 RU * 100/Da
CCOC(=O)/C=C/c1cc(NS(=O)(=O)c2cccs2)c2c(c1OC)OCO2 [Compound 129],,,,,,,,,,,−0.133 RU * 100/Da,−0.041 RU * 100/Da
COc1cc(NS(=O)(=O)c2cccs2)c(SC)c(/C=C/N2C(=O)CN(C)C2=O)c1O [Compound 132],,,4.14,4.22,4.22,,,< 4.00,,,0.457 RU * 100/Da,0.906 RU * 100/Da
COc1cc(NS(=O)(=O)c2cccs2)c(SC)c(/C=C/N2C(=O)COC2=O)c1O [Compound 133],,,< 4.00,< 4.00,4.02,,,< 4.00,,,−1.537 RU * 100/Da,−0.123 RU * 100/Da

# Source: patent US9340532B2, “Methods and compositions for inhibiting CNKSR1” (PHUSIS THERAPEUTICS, INC., priority 2012, dated 2016)
